Experimental data reported in patent US20110263520A1, “COMPOSITION FOR USE IN CONTROLLING HARMFUL ORGANISMS THAT CONTAINS 16-KETO ASPERGILLIMIDE” (priority 2008, published 2011).
Where two headings read alike, the source gives them in different places.

Columns and labels:
[1] = system: Laodelphax striatellus; experiment: Foliage application test for Laodelphax striatellus (Test Example 2); assay type: in vivo; settings: 16-keto aspergillimide 2.5 ppm alone
From the text: (§1) Colby's formula: Theoretical value (%)=100−(A×B)/100

[2] = system: Aphis gossypii; experiment: Foliage application test for Aphis gossypii, cucumber leaf disk (Test Example 3); assay type: in vivo; settings: 16-keto aspergillimide 1.25 ppm alone
From the text: Test solutions adjusted to a predetermined concentration (50% aqueous acetone solution; 0.05% Tween 20 added) were applied to a leaf disk having a diameter of 2.0 cm cut out from a cucumber grown in a pot.
as §1

[3] = system: Nilaparvata lugens which is low-sensitive to imidacloprid; experiment: Foliage application test for Nilaparvata lugens, imidacloprid low-sensitive strain (Test Example 4); assay type: in vivo; settings: for Death rate (%): low-sensitive strain, 6 days after release
Description: (§2) Test solutions adjusted to a predetermined concentration (50% aqueous acetone solution) applied to rice seedlings in a pot for foliage application. […] The test was duplicated.
(§3) For comparison, a test was carried out in the same manner as described above, except that a Nilaparvata lugens strain which is highly sensitive to imidacloprid was used.
(§4) Regarding the origin of the test insect pests, Nilaparvata lugens which is low-sensitive to imidacloprid was an insect which had been collected outdoors in Kumamoto Prefecture, 2007, and Nilaparvata lugens which is sensitive to imidacloprid was an insect which had been collected in Kagoshima Prefecture and was then subjected to indoor successive raising.

[4] = system: Nilaparvata lugens which is sensitive to imidacloprid; experiment: Foliage application test for Nilaparvata lugens, imidacloprid-sensitive strain (Test Example 4, comparison); assay type: in vivo; settings: 6 days after release
Description: as §2, §3, §4

[5] = system: Haemaphysalis longicornis; experiment: Tickcidal effect against Haemaphysalis longicornis, dry film in glass vial (Test Example 5); assay type: in vivo; settings: Haemaphysalis longicornis, 48 h, 2 days after release; for pest or weed control at 1 ppm: 16-keto aspergillimide 1 ppm alone; for pest or weed control at 2 ppm: 16-keto aspergillimide 2 ppm alone
Description: Acetone solutions (30 μl) adjusted to predetermined concentrations were placed in 4 mL-volume glass vials. The vials were placed on a shaker, and a dry film of the compound was prepared on the inner wall of the vials. The vials were dried for 24 hr or more. Larvae (10 or more heads) were released in the vials, and the vials were lidded. The vials were then left to stand in a humidistat chamber (25° C., humidity 85%, fully darkened conditions). […] The test was duplicated.
as §1

[6] = system: Haemaphysalis longicornis; experiment: Tickicidal effect against Haemaphysalis longicornis on body surface of mouse (Test Example 6); assay type: in vivo; settings: for Death rate (%): mouse body surface, 3 days after release
Description: Skin hair on the back of mouse (ICR, male, 5 week olds) was clipped in a diameter of about 2 cm, and a 15-mL polystyrene conical tube cut to have a height of about 1.5 cm was bonded to the body surface of the mouse with an instant adhesive. Test solutions (20 μl) adjusted with ethanol were dropped on the body surface of mice within the bonded tube. After thorough drying, larvae (10 or more heads) were released within the tube, and the tube was lidded. […] The test was hexaplicated.
as §1

[7] = system: Laodelphax striatellus; experiment: Root dipping application test, Laodelphax striatellus (Reference Test Example 1); assay type: in vivo
From the text: (§5) A test solution adjusted to a predetermined concentration (10% aqueous acetone solution) was applied to the root of wheat seedlings in water culture. […] The test was duplicated.
As is apparent from Table 15, the systemic insecticidal activity of 16-keto aspergillimide was much higher than that of a control compound, Asperparaline A.
The 16-keto aspergillimide and Asperparaline A used in this test were obtained according to methods described in The Journal of Antibiotics, 1997, 50(10), 840-846. This is true of the following test examples.

[8] = system: Trigonotylus caelestialium; experiment: Root dipping application test, Trigonotylus caelestialium (Reference Test Example 2); assay type: in vivo
From the text: as §5

[9] = system: Nilaparvata lugens; experiment: Soil drenching application test, Nilaparvata lugens (Reference Test Example 3); assay type: in vivo
From the text: (§6) A test solution adjusted to a predetermined concentration (10% aqueous acetone solution) was applied to rice seedlings in a pot by soil drenching. The rice seedlings were allowed to stand for 3 days. […] The test was duplicated.

[10] = system: Sogatella furcifera; experiment: Soil drenching application test, Sogatella furcifera (Reference Test Example 4); assay type: in vivo
Description: as §6
The death rate against larvae at the second instar born of Sogatella furcifera was calculated in the same manner as in Reference Test Example 3.

[11] = system: Nephotettix cincticeps; experiment: Soil drenching application test, Nephotettix cincticeps (Reference Test Example 5); assay type: in vivo
Description: as §6
The death rate against second instar larvae was calculated in the same manner as in Reference Test Example 3.

[12] = system: Frankliniella occidentalis; experiment: Soil drenching application test, Frankliniella occidentalis (Reference Test Example 6); assay type: in vivo
From the text: A test solution adjusted to a predetermined concentration (10% aqueous acetone solution) was applied to cucumber seedlings in pot couture by soil drenching. The cucumber seedlings were allowed to stand for 4 days. A leaf disk having a diameter of 2.8 cm was then cut out from cucumber seedlings, and first instar larvae were released. […] The test was duplicated.

[13] = system: Sogatella furcifera; experiment: Foliage application test, Sogatella furcifera (Reference Test Example 7); assay type: in vivo
From the text: (§7) A test solution adjusted to a predetermined concentration (10% aqueous acetone solution) was applied to rice seedlings in pot culture. […] The test was duplicated.

[14] = system: Nephotettix cincticeps; experiment: Foliage application test, Nephotettix cincticeps (Reference Test Example 8); assay type: in vivo
Description: as §7
The death rate against larvae at the second instar born of Nephotettix cincticeps was calculated in the same manner as in Reference Test Example 7.

[15] = system: Frankliniella occidentalis; experiment: Foliage application test, Frankliniella occidentalis, haricot leaf disk (Reference Test Example 9); assay type: in vivo
From the text: A leaf disk having a diameter of 2.8 cm was cut out from haricot in pot culture, and a test solution adjusted to a predetermined concentration (50% aqueous acetone solution, with 0.05% Tween 20 added) was applied thereto. The leaf disk was air-air dried, and first instar larvae were released.

[16] = system: larvae at the third instar born of Haemonchus contortus; settings: The Journal of Antibiotics, 1997, 50(10), 840-846; cited from earlier work
[17] = system: Laodelphax striatellus; experiment: Laodelphax striatellus soil drenching application test (Test Example 1); settings: 16-keto aspergillimide 0.2 mg/seedling alone
Description: Test solutions adjusted to a predetermined concentration (10% aqueous acetone solution) were applied to rice seedling in a pot by soil drenching. The rice seedling was allowed to stand for 3 days. Second instar larvae were released and was then allowed to stand in a humidistat chamber (light period 16 hr−dark period 8 hr) (25° C.).
Death rate (%)={number of dead larvae/(number of survived larvae+number of dead larvae)}×100
wherein A: 100−(death rate when application was performed only with 16-keto aspergillimide); and

[18] = read-out: Death rate (%), Table 9
[19] = read-out: Death rate (%), Table 10
[20] = 16-keto aspergillimide 1 μg/2 cm^2 alone
[21] = 0.5 μg/seedling, wheat seedlings, 3 days after release
[22] = 1.0 mg/seedling, rice seedlings, 3 days after release
[23] = 100 ppm, rice seedlings, 3 days after release

## C[C@H]1CC(=O)N2C[C@]34C[C@]5(CC(=O)N(C)C5=O)C(C)(C)[C@@H]3C[C@]12C(=O)N4C [16-Keto aspergillimide, 16-keto aspergillimide]
[1]
  Theoretical value (%) calculated by the Colby's formula: 65%
[1]; foliage application, 3 days after release
  Death rate (%): 65%
[2]
  Theoretical value calculated by the Colby's formula (%): 26%
[2]; leaf disk, 3 days after release
  Death rate (%): 26%
[3]; Table 7 against Table 8
  death rate for the low-sensitive strain compared with the high-sensitive strain: the same
[3]; treatment concentration 5 ppm
  Death rate (%): 60%
[3]; treatment concentration 20 ppm
  Death rate (%): 95%
[3]; treatment concentration 50 ppm
  Death rate (%): 100%
[4]; treatment concentration 5 ppm
  Death rate (%): 95%
[4]; treatment concentration 20 ppm
  Death rate (%): 100%
[4]; treatment concentration 50 ppm
  Death rate (%): 100%
[5]; [18]
  pest or weed control at 1 ppm: 10%
  pest or weed control at 2 ppm: 17%
[5]; [19]
  pest or weed control at 1 ppm: 14%
  pest or weed control at 2 ppm: 20%
[6]; [20]
  Theoretical value (%) by Colby's formula: 22%
  Death rate (%): 22%
[6]; 16-keto aspergillimide 2 μg/2 cm^2 alone
  Death rate (%): 57%
[6]; 16-keto aspergillimide alone
  Theoretical value (%) by Colby's formula: 57%
[7]; [21]
  Death rate (%) for each amount of test chemical compound: 100%
[7]; Table 15
  systemic insecticidal activity compared with control compound Asperparaline A: much higher
[8]
  systemic insecticidal activity: exhibited systemic insecticidal activity
[8]; [21]
  Death rate (%): 100%
[9]
  systemic insecticidal activity: exhibited systemic insecticidal activity
[9]; [22]
  Death rate (%): 100%
[10]
  systemic insecticidal activity: exhibited systemic insecticidal activity
[10]; [22]
  Death rate (%): 100%
[11]
  systemic insecticidal activity: exhibited systemic insecticidal activity
[11]; [22]
  Death rate (%): 100%
[12]
  systemic insecticidal activity: exhibited systemic insecticidal activity
[12]; 2.0 mg/seedling, cucumber seedlings, 6 days after release
  Death rate (%): 100%
[13]
  insecticidal activity by foliage application: exhibited insecticidal activity
[13]; [23]
  Death rate (%): 100%
[14]
  insecticidal activity in foliage application: exhibited insecticidal activity
[14]; [23]
  Death rate (%): 100%
[15]; 100 ppm, haricot leaf disk, 3 days after release
  Death rate (%): 100%
[15]; foliage application
  insecticidal activity by foliage application: exhibited insecticidal activity
[16]
  anthelmintic activity: anthelmintically active
[17]
  Theoretical value (%) calculated by the Colby's formula: 30%
[17]; soil drenching, 3 days after release
  Death rate (%): 30%
